In brackets after ≈: the same amount, converted by molar mass. Where a name gives a salt, the structure may show the parent alone. Read-outs that look alike come from different tables or passages of the source. Marks after values point to notes of the source that are not given here.
Tests used:
[1] = Stability study (influencing factors, HPLC purity); type: physicochemical; details: for Purity Day 12 under high temperature / Purity Day 12 under light / Purity Day 0 / Purity Day 12 under high humidity: HPLC; for Purity Day 12 under high temperature: 60° C.; for Purity Day 12 under light / stability under light: 5000Lux; for Purity Day 12 under high humidity: RH80%
Source text: Carebastine (Comparative Example 2, Comparative Example 2′), carebastine potassium salt (Example 1), and carebastine p-toluenesulfonate (Example 3, Example 5).
Three samples of each of carebastine (Comparative Example 2), refined carebastine (Comparative Example 2′), carebastine potassium salt (Example 1), carebastine p-toluenesulfonate (Example 3), and carebastine p-toluenesulfonate (Example 5) were weighed and placed in weighing flasks. The samples of each group were placed under high temperature (60° C.), high humidity (RH80%), and light (5000Lux) conditions, and the samples were taken for testing after 12 days. Note: The refined carebastine of Comparative Example 2′ can be prepared by column chromatography of Comparative Example 2 using common technical means in the related art.
Detection method: An appropriate amount of each of the samples was weighed accurately, and is dissolved in acetonitrile and quantitatively diluted to a solution containing about 0.08 mg per 1 ml. The detection was carried out using high performance liquid chromatography, octadecylsilane bonded silica gel as a filler, and water-acetonitrile (1:1) as a mobile phase, under a detection wavelength of 256 nm, column temperature of 35° C., and injection volume of 10 μL. Each sample solution was injected into the liquid chromatograph and the chromatogram was recorded.

[2] = test system: histamine-induced shock in guinea pigs; test: Histamine-induced shock test in guinea pigs; type: in vivo; details: gavage, equimolar to 1.00 mg/kg ebastine, histamine phosphate i.v. one hour after administration, n = 10; for Time of accelerated respiration: x ± s
Description: One hour after administration, 0.125 wt. % histamine phosphate saline solution was injected intravenously into lateral sides of hind paws of the guinea pigs at 2 ml/kg. After the injection was completed within 10 s, a stopwatch was used immediately to observe the latency period for the guinea pigs to develop accelerated respiration and collapse with convulsions.

Hygroscopicity study = type: physicochemical; details: 25° C.±1° C., relative humidity 80%, 24 hours
Description: The preparation of carebastine hydrochloride refers to the description of patent U.S. Pat. No. 6,340,761, and the purity is 99% or more. […] (2) An appropriate amount of the sample was spread flat in the weighing bottle. […] (3) The weighing bottle was opened and placed with the lid under the above constant temperature and humidity conditions for 24 hours. (4) The lid was put on the weighing bottle and the weight was accurately weighed (m3).

[3] = Solubility test in different media; type: physicochemical
Description: Carebastine (Comparative Example 2) and carebastine p-toluenesulfonate (Example 3).
Hydrochloric acid solution with a pH of 1.2:7.65 ml of hydrochloric acid was diluted to 1000 ml with water, and shaken evenly to obtain the solution.
Phosphate buffer with a pH of 4.5:3.40278 g of KH2PO4 was weighed, dissolved in water and diluted to 500 ml, and shaken evenly to obtain the solution.
Phosphate buffer with a pH of 6.8:3.40353 g of KH2PO4 and 0.4428 g of sodium hydroxide were weighed, dissolved in water and diluted to 500 ml, and shaken evenly to obtain the solution.
Appropriate amounts of the compounds of Example 3 and Comparative Example 2 were respectively placed in conical flasks containing 50 ml of water, 50 ml of a hydrochloric acid solution with a pH of 1.2, 50 ml of a phosphate buffer with a pH of 4.5, and 50 ml of a phosphate buffer with a pH of 6.8, respectively, so that the solutions were supersaturated and insoluble matter was clearly visible.
The conical flasks were placed in a thermostatic water bath at 37° C. and an oscillation rate of 120 r/min. Samples were taken at 24 h, 48 h, and 72 h, and detected by liquid chromatography.

KM mice = details: for Mortality rate of mice / Number of surviving mice / abnormalities during observation period and in gross anatomical observation: single intragastric; for Mortality rate of mice / Number of surviving mice: 14 days observation; for Number of surviving mice: 10 mice per group; for abnormalities during observation period and in gross anatomical observation: low dose, mice
Description: All drugs were administered by intragastric administration, and the blank control group was administered with an equal volume of 0.5% CMC-Na solution. All animals were fasted for 12 hours before administration, but were allowed to drink water freely.
After administration, the mice were kept and observed for 14 days, and the toxic reactions (such as death) of the mice were observed and recorded every day. After the observation period, all surviving animals were dissected to observe whether there were obvious lesions in each organ.

[4] = type: in vivo; details: SD rats
Description: Twenty-four SD rats weighing about 180 g to 200 g were randomly divided into 4 groups, with 6 rats in each group, half of which were male and half were female. The rats were given the corresponding drugs by intragastric administration.
The rats were fasted for 12 hours before administration, but were allowed to drink water freely.
Preparation of test substances: The preparation of test substances was carried out on the workbench in the related art in the preparation room.
Blank blood was collected before administration, and blood was collected at predetermined time points of 0.25 h, 0.5 h, 0.75 h, 1 h, 2 h, 3 h, 4 h, 6 h, 8 h, 10 h, and 24 h after administration. About 0.5 mL of blood was collected and placed in an EDTA-K2 tube, and the plasma was separated by centrifugation and stored at −80° C. The prototype and the metabolite, namely, carebastine, in a plasma sample were detected and analyzed by liquid chromatography-mass spectrometry (LC-MS/MS), and pharmacokinetic parameters were calculated.

[5] = high dose (equimolar to 5 g/kg ebastine)
[6] = low dose (equimolar to 2.5 g/kg ebastine)

Compound	Purity Day 12 under high temperature ([1]; 12 days) [%]	Purity Day 12 under light ([1]; 12 days) [%]	Purity Day 0 [1] [%]	Purity Day 12 under high humidity ([1]; 12 days) [%]	Mortality rate [2]	Time of convulsion and collapse [2]	Time of accelerated respiration [2] [s]	Characteristic description (hygroscopicity) (Hygroscopicity study)	Weight gain Percentage (Hygroscopicity study) [%]	further results
CC(C)(C(=O)O)c1ccc(C(=O)CCCN2CCC(OC(c3ccccc3)c3ccccc3)CC2)cc1 [Comparative Example 2′, carebastine]	99.45	88.11	99.65	99.25	–	–	–	–	–	–
CC(C)(C(=O)O)c1ccc(C(=O)CCCN2CCC(OC(c3ccccc3)c3ccccc3)CC2)cc1.CS(=O)(=O)O [Example 4, 2-(4-(4-(4-(diphenylmethoxy)piperidin-1-yl)butyryl)phenyl)-2-methylpropanoic acid methanesulfonate]	–	–	–	–	0/10	>600*^▴ s	256 ± 24.05	–	–	–
CC(C)(C(=O)O)c1ccc(C(=O)CCCN2CCC(OC(c3ccccc3)c3ccccc3)CC2)cc1.Cc1ccc(S(=O)(=O)O)cc1 [Example 5, carebastine p-toluenesulfonate]	97.90	97.80	97.90	97.89	–	–	–	–	–	–
CC(C)(C(=O)O)c1ccc(C(=O)CCCN2CCC(OC(c3ccccc3)c3ccccc3)CC2)cc1 [Comparative Example 3, carebastine hydrochloride]	–	–	–	–	–	–	–	–	–	Characteristic description (hygroscopicity) (Hygroscopicity study; hydrochloride): Extremely hygroscopic; Weight gain Percentage (Hygroscopicity study; hydrochloride): 15.9%; solubility [3]: 80 µg/mL; solubility ([3]; pH 6.8): 10 µg/mL
CC(C)(C(=O)O)c1ccc(C(=O)CCCN2CCC(OC(c3ccccc3)c3ccccc3)CC2)cc1.Cc1ccc(S(=O)(=O)O)cc1 [Example 3, 2-(4-(4-(4-(diphenylmethoxy)piperidin-1-yl)butyryl)phenyl)-2-methylpropanoic acid p-toluenesulfonate]	–	–	–	–	0/10	>600*^▴ s	351 ± 38.16	Slightly hygroscopic	0.3	Mortality rate of mice (KM mice; [5]): 10%; Number of surviving mice (KM mice; [5]): 9; Mortality rate of mice (KM mice; [6]): 0; Number of surviving mice (KM mice; [6]): 10; abnormalities during observation period and in gross anatomical observation (KM mice; 14 days): no obvious abnormalities were observed; stability under high temperature, high humidity and light conditions ([1]; 12 days): stable; Purity Day 12 under high temperature ([1]; 12 days, p-toluenesulfonate): 99.94%; Purity Day 12 under light ([1]; 12 days, p-toluenesulfonate): 99.91%; Purity Day 0 ([1]; p-toluenesulfonate): 99.99%; Purity Day 12 under high humidity ([1]; 12 days, p-toluenesulfonate): 99.98%
CC(C)(C(=O)[O-])c1ccc(C(=O)CCCN2CCC(OC(c3ccccc3)c3ccccc3)CC2)cc1.[K+] [Example 1, potassium 2-(4-(4-(4-(diphenylmethoxy)piperidin-1-yl)butyryl)phenyl)-2-methylpropanoate]	98.23	97.48	98.42	98.38	0/10	>600*^▴ s	294 ± 24.42	No or almost no hygroscopicity	−0.2	Mortality rate of mice (KM mice; [5]): 20%; Number of surviving mice (KM mice; [5]): 8; Mortality rate of mice (KM mice; [6]): 0; Number of surviving mice (KM mice; [6]): 10; abnormalities during observation period and in gross anatomical observation (KM mice; 14 days): no obvious abnormalities were observed; stability under light ([1]; 12 days): slightly reduced
CC(C)(C(=O)[O-])c1ccc(C(=O)CCCN2CCC(OC(c3ccccc3)c3ccccc3)CC2)cc1.[Na+] [Example 2, sodium 2-(4-(4-(4-(diphenylmethoxy)piperidin-1-yl)butyryl)phenyl)-2-methylpropanoate]	–	–	–	–	0/10	>600*^▴ s	275 ± 31.41	–	–	–
CC(C)(C)c1ccc(C(=O)CCCN2CCC(OC(c3ccccc3)c3ccccc3)CC2)cc1 [Comparative Example 1, ebastine]	–	–	–	–	0/10	349* s	–	–	–	gender differences (AUC and Cmax, female vs male rats) ([4]; three female vs three male per group): showed gender differences; content of the prototype ([4]; prototype (ebastine) in plasma, single intragastric 10 mg/kg): lower than 3 ng/mL; MDT (KM mice; both, KM, mouse, in vivo, 14 days): > 2500 mg/kg
CC(C)(C(=O)O)c1ccc(C(=O)CCCN2CCC(OC(c3ccccc3)c3ccccc3)CC2)cc1 [Comparative Example 2, 2-(4-(4-(4-(diphenylmethoxy)piperidin-1-yl)butyryl)phenyl)-2-methylpropanoic acid]	97.22	87.28	97.78	97.41	–	–	–	Hygroscopic	6	stability under light ([1]; 12 days): extremely unstable; solubility ([3]; Hydrochloric acid solution with a pH of 1.2, 37° C., 24 h): 460 µg/mL (≈ 921 µM); solubility ([3]; Hydrochloric acid solution with a pH of 1.2, 37° C., 48 h): 540 µg/mL (≈ 1080 µM); solubility ([3]; Hydrochloric acid solution with a pH of 1.2, 37° C., 72 h): 390 µg/mL (≈ 781 µM); solubility ([3]; Phosphate buffer with a pH of 4.5, 37° C., 24 h): 200 µg/mL (≈ 400 µM); solubility ([3]; Phosphate buffer with a pH of 4.5, 37° C., 48 h): 190 µg/mL (≈ 380 µM); solubility ([3]; Phosphate buffer with a pH of 4.5, 37° C., 72 h): 200 µg/mL (≈ 400 µM); solubility ([3]; Phosphate buffer with a pH of 6.8, 37° C., 24 h): 30 µg/mL (≈ 60 µM); solubility ([3]; Phosphate buffer with a pH of 6.8, 37° C., 48 h): 30 µg/mL (≈ 60 µM); solubility ([3]; Phosphate buffer with a pH of 6.8, 37° C., 72 h): 30 µg/mL (≈ 60 µM); solubility ([3]; Water, 37° C., 24 h): 720 µg/mL (≈ 1440 µM); solubility ([3]; Water, 37° C., 48 h): 520 µg/mL (≈ 1040 µM); solubility ([3]; Water, 37° C., 72 h): 520 µg/mL (≈ 1040 µM)
